Source: PMC9071130, “Functional analysis of LFRFamide signaling in Pacific abalone, Haliotis discus hannai” (PLoS ONE, 2022)

Columns and labels:
Hdh-sNPFR [1] = test: SRE-Luc reporter activation in Hdh-sNPFR-transfected HEK293 cells; format: cell-based, Haliotis discus hannai; details: peptide 10^−6 M, 6 h, n = 3
Experimental: (§1) HEK293 cells were grown in monolayer culture in Dulbecco’s modified Eagle medium (Gibco, Loughborough, UK) with 10% fetal bovine serum (HyClone, GE Healthcare, Chicago, IL, USA) and 1% penicillin/streptomycin (Invitrogen, Carlsbad, CA, USA) at 37°C, 5% CO2. HEK293 cells were seeded in 24-well plates and the transfection was performed using a formulated polyethylenimine solution (Sigma-Aldrich, St. Louis, MO, USA) as previously described. […] The cells were harvested with a cell lysis buffer (Promega, Madison, WI, USA) and luciferase activities were assayed using a microplate luminometer (Berthold, Bad Wildbad, Germany) and normalized by β-galactosidase values detected on a microplate reader (Tecan, Männedorf, Switzerland) at 405 nm.
(§2) Fig 5 Effect of LFRFa peptides on luciferase reporter activities in Hdh-sNPFR-expressing HEK293 cells. […] Intracellular cAMP accumulation was measured by CRE-Luc reporter activities in Hdh-sNPFR- or maternal plasmid pcDNA3-transfected HEK293 cells. The relative activities were determined in response to 10^−5 M of FKN and 10^−6 M of peptide as indicated. […]

Hdh-sNPFR [2] = test: Internalization of HA-tagged Hdh-sNPFR in HEK293 cells (immunocytochemistry, confocal microscopy); format: cell-based, Haliotis discus hannai; details: HEK293 cells with HA-tagged Hdh-sNPFR; peptide 10^−6 M; 5 and 30 min
Experimental: To detect Hdh-sNPFR expression, HEK293 cells were seeded on poly-D-lysine hydrobromide (Sigma-Aldrich)-coated coverslips in 24-well plates. The Hdh-sNPFR expression plasmid was transfected into HEK293 cells as described above. At approximately 30 h post-transfection, the cells were treated with LFRFa peptides and NPF for 5 min and 30 min, respectively. The cells were fixed with 4% paraformaldehyde for 10 min, followed by treatment with 1% bovine serum albumin in phosphate-buffered saline with 0.1% Tween 20 (PBST) for 30 min at room temperature to block non-specific binding. The HEK293 cells were treated with a monoclonal HA primary antibody (1:5000 dilution; H9658, Sigma-Aldrich) in PBST at 4°C for 16 h. After washing with PBST three times for 10 min each, the cells were treated with a secondary antibody [anti-mouse IgG (H+L), F(ab’)2Fragment (AlexaFluor 488 Conjugate), 1:2000 dilution; Cell Signaling, Danvers, MA, USA] in PBST at room temperature for 1 h in a light-blocked chamber. After washing with PBST three times for 10 min each, the cells were mounted with a mounting medium including DAPI (Abcam, Cambridge, UK). The expression of Hdh-sNPFR was monitored with a confocal laser-scanning microscope (FV3000, Olympus, Tokyo, Japan).
Fig 7 Subcellular localization and internalization of Hdh-sNPFR. […]

Pacific abalone = details: injection of NPF peptide; earlier paper of the authors; cited from earlier work
From the text: Along with insect sNPFs, LFRFa peptides convert feeding motor programs from ingestive to egestive, depress feeding muscle contractions in Aplysia californica, and increase rectal contractions in Sepia officinalis.

Hdh-sNPFR [3] = test: CRE-Luc reporter activation in Hdh-sNPFR-transfected HEK293 cells; format: cell-based, Haliotis discus hannai; details: peptide 10^−6 M, 6 h, no forskolin, n = 3
Experimental: as §1, §2

QDAMLAPPDRPSEFRSPDQLRQYLKALNEYYAIVGRPRF-NH2 [NPF, Pacific abalone neuropeptide F, 39 amino acids, amidated, used as comparison peptide]
Activation of SRE-Luc reporter (Hdh-sNPFR [1]): did not activate | Internalization of Hdh-sNPFR from cell membrane to cytoplasm (Hdh-sNPFR [2]): did not undergo redistribution from the cell surface to the cytoplasm | Food consumption in Pacific abalone after NPF injection (Pacific abalone): increased food consumption | Activation of CRE-Luc reporter (Hdh-sNPFR [3]): did not activate
